Experimental data published in US11162077B2, “Apicidin-containing composition for inducing differentiation of mesenchymal stem cells into cardiac-committed cells” (CHONNAM NATIONAL UNIVERSITY HOSPITAL, priority 2015, dated 2021).

Tested on: human bone marrow-derived MSCs
Assay: Real-time PCR of cardiac-specific marker genes after MSCs are treated with HDAC inhibitors
Type: cell-based
Details: 24 hours, TSA 0.5 μM, VPA 3 mM, AC 1 and 3 μM, vs vehicle, FIG. 1
Description: First, MSCs prepared in Example 1 were cultured for one day in a 6-well culture plate containing HIGH glucose/DMEM (4 mM L-glutamine, 4500 mg/L glucose, sodium pyruvate, 10% FBS, 100 U/ml penicillin, 100 μg/ml streptomycin), and then treated with TSA (0.5 μM), VPA (3 mM), and AC (1 and 3 μM) for 24 hours.
Afterward, the cell culture medium was removed from each sample, washed with PBS once, and homogenized with TRIzol for 10 minutes at room temperature, followed by centrifugation after the addition of chloroform. A supernatant obtained by centrifugation was harvested to purify total RNA, and cDNA was synthesized using a reverse transcriptase (MMLV) to be used as a template, followed by real-time PCR performed using the QuantiTect SYBR Green PCR kit. Accordingly, expression levels of the cardiac-specific marker genes (GATA4, Nkx2.5 and cTnI) were confirmed.

| SMILES | mRNA expression of GATA4 | mRNA expression of Nkx2.5 | mRNA expression of cTnI |
| --- | --- | --- | --- |
| CC(/C=C/C(=O)NO)=C\[C@@H](C)C(=O)c1ccc(N(C)C)cc1 [TSA, trichostatin A] | no specific effect | no specific effect | had significance |
| CCCC(CCC)C(=O)O [VPA, valproic acid] | promoted | – | promoted |
